The record followed here is US10881110B2, “Herbicidal compositions comprising isoxazolo[5,4-b]pyridines” (BASF SE, priority 2014, dated 2021).

Holding throughout (test): greenhouse post-emergence herbicidal test
Assay [1] has as its system ABUTH. In kind it is in vivo, Abutilon theophrast. On the set-up: key to herbicidal activity against ABUTH found: rating on a scale from 0 to 100. Conditions: post emergence; for herbicidal activity against ABUTH found: B.107 (topramezone) 6 g/ha, alone or as mixture (composition 1.107). As to the method:
(§1) The culture containers used were plastic pots containing medium loamy sand with approximately 4.6% of humus and 69.9% sand as substrate. The seeds of the test plants were sown separately for each species.
(§2) For the post-emergence treatment, the test plants were grown to a plant height of from 1 to 15 cm, depending on the plant habit, and only then treated with the active compounds which had been suspended or emulsified in water. To this end, the test plants were either sown directly, and grown in the same containers, or they were first grown separately as seedlings and transplanted into the test containers a few days prior to treatment.
(§3) Depending on the species, the plants were kept at 10-25° C. and 20-35° C., respectively.
(§4) The test period extended over 1 to 3 weeks. During this time, the plants were tended and their response to the individual treatments was evaluated 20 days after treatment except mentioned otherwise.
(§5) Evaluation was carried out using a scale from 0 to 100. 100 means no emergence of the plants, or complete destruction of at least the above-ground parts, and 0 means no damage or normal course of growth.
(§6) The respective stated components A and B, and, if appropriate, C, were formulated as a 10% by weight strength emulsion concentrate and, with addition of the amount of solvent system, introduced into the spray liquor used for applying the active compound. In the examples, the solvent used was water.
(§7) In the examples below, using the method of S. R. Colby (1967) “Calculating synergistic and antagonistic responses of herbicide combinations”, Weeds 15, p. 22 ff., the value E, which is expected if the activity of the individual active compounds is only additive, was calculated. E=X+Y−(X·Y/100)

Assay [2] relates to ERICA. Format: in vivo, Conyza canadensis. On the set-up: key to herbicidal activity against ERICA found: rating on a scale from 0 to 100. The following applies: post emergence. As for the experimental part:
as §1, §2, §3, §4, §5, §6, §7

Assay [3] has as its system GERDI. In kind it is in vivo, Geranium dissectum. The following applies: Geranium dissectum, post-emergence, 480 h, post emergence, read-out: herbicidal activity against GERDI found. As for the experimental part: as §1, §2, §3, §4, §5, §6, §7
The subject of assay [4] is MATCH. Format: in vivo, Matricaria recutita. Details: key to herbicidal activity against MATCH found: rating on a scale from 0 to 100. Conditions: post emergence. As to the method: as §1, §2, §3, §4, §5, §6, §7
Assay [5] relates to POLCO. Format: in vivo, Polygonum convolvulus. Details: key to herbicidal activity against POLCO found: rating on a scale from 0 to 100. Conditions: post emergence. As to the method:
as §1, §2, §3, §4, §5, §6, §7

Assay [6] deals with VIOAR. Format: in vivo, Viola arvensis. On the set-up: key to herbicidal activity against VIOAR found / herbicidal activity against VIOLA found: rating on a scale from 0 to 100. The following applies: post emergence. As to the method: as §1, §2, §3, §4, §5, §6, §7
For assay [7], the system named is ALOMY. Format: in vivo, Alopecurus myosuroides. On the set-up: key to herbicidal activity against ALOMY found: rating on a scale from 0 to 100. The following applies: post emergence. As to the method:
as §1, §2, §3, §4, §5, §6, §7

For assay [8], the system named is GALAP. In kind it is in vivo, Galium aparine. Details: key to herbicidal activity against GALAP found: rating on a scale from 0 to 100. The following applies: post emergence. As to the method: as §1, §2, §3, §4, §5, §6, §7
Where [9] appears, read: g/ha a.i.: I.1 125, B.63 0.5, mixture 125+0.5.
[10] abbreviates: g/ha a.i.: I.1 125, B.63 1, mixture 125+1.
Setting [11] is: a.i. g/ha: I.1 31.25, B.92 0.5, 20 days after treatment.
The mark [12] stands for this setting: application rate a.i.: I.1 20.8 g/ha, B.107 (topramezone) 6 g/ha, alone or as mixture (composition 1.107).
Where [13] appears, read: application rate a.i.: I.1 62.5 g/ha, B.107 (topramezone) 6 g/ha, alone or as mixture (composition 1.107).

For the molecule `CC(C)C1(C)N=C(c2ncccc2C(=O)O)NC1=O` (centres unmarked) [B.35, imazapyr], the pest or weed control at 10 g/ha in assay [1] (Abutilon theophrasti, post-emergence, 480 h, 10 g/ha a.i., read-out: herbicidal activity against ABUTH found) is 90%; in assay [3] (10 g/ha a.i.), 95%; in assay [4] (Matricaria chamomilla, post-emergence, 480 h, 10 g/ha a.i., read-out: herbicidal activity against MATCH found) it was 55%. In addition, the pest or weed control at 5 g/ha came to 75% in assay [2] (Erigeron canadensis, post-emergence, 480 h, 5 g/ha a.i., read-out: herbicidal activity against ERICA found); 95% in assay [5] (Fallopia convolvulus, post-emergence, 480 h, 5 g/ha a.i., read-out: herbicidal activity against POLCO found); 55% in assay [6] (Viola arvensis, post-emergence, 5 g/ha a.i., read-out: herbicidal activity against VIOAR found).
With `COC(=O)c1ccc(I)cc1S(=O)(=O)[N-]C(=O)Nc1nc(C)nc(OC)n1.[Na+]` [B.44, iodosulfuron-methyl-sodium], the “herbicidal activity against ALOMY found” value in assay [7] (1 g/ha a.i.) was found to be 20. Further, the “herbicidal activity against POLCO found” value in assay [5] (1 g/ha a.i.) turned out to be 90.
As for `COC(=O)c1ccccc1S(=O)(=O)NC(=O)N(C)c1nc(C)nc(OC)n1` [B.63, tribenuron-methyl], the “herbicidal activity against ALOMY found” value in assay [7] (setting [9]) came to 0. Further, in assay [4] (setting [9]), the “herbicidal activity against MATCH found” value turned out to be 30. Moreover, the “herbicidal activity against POLCO found” value in assay [5] (g/ha a.i.: I.1 31.25, B.63 1, mixture 31.25+1) is listed as 30; in assay [5] (setting [9]), 20; in assay [5] (setting [10]) it was 30. In addition, the “herbicidal activity against VIOAR found” value in assay [6] (g/ha a.i.: I.1 62.5, B.63 0.5, mixture 62.5+0.5) is on record as 65; in assay [6] (setting [10]), 40.
`CC(C)N(C)S(=O)(=O)NC(=O)c1cc(-n2c(=O)cc(C(F)(F)F)n(C)c2=O)c(F)cc1Cl` [B.92, saflufenacil]: the “herbicidal activity against ERICA found” value in assay [2] (setting [11]) came to 80%. Besides, the “herbicidal activity against GALAP found” value in assay [8] (setting [11]) is listed as 80%.
For `Cc1c(C(=O)c2cnn(C)c2O)ccc(S(C)(=O)=O)c1C1=NOCC1` [B.107, topramezone], the “herbicidal activity against ABUTH found” value in assay [1] (application rate a.i.: I.1 20.8 g/ha) and in assay [1] (application rate a.i.: I.1 62.5 g/ha) was 85 throughout. The “herbicidal activity against ERICA found” value in assay [2] (setting [12]) and in assay [2] (setting [13]) was 65 throughout. The “herbicidal activity against GALAP found” value in assay [8] (setting [13]) is 70. In addition, the “herbicidal activity against MATCH found” value in assay [4] (setting [12]) is listed as 70. In addition, the “herbicidal activity against POLCO found” value in assay [5] (setting [13]) was found to be 35.
Regarding `CCC(CC)Nc1c([N+](=O)[O-])cc(C)c(C)c1[N+](=O)[O-]` [B.123, pendimethalin], the pest or weed control at 500 g/ha in assay [2] (Erigeron canadensis, post-emergence, 480 h, B.123 alone 500 g/ha a.i., read-out: herbicidal activity against ERICA found) was found to be 30%. Further, the pest or weed control at 1000 g/ha in assay [2] (Erigeron canadensis, post-emergence, 480 h, B.123 alone 1000 g/ha a.i., read-out: herbicidal activity against ERICA found) turned out to be 60%; in assay [3] (B.123 alone 1000 g/ha a.i.), 75%; in assay [5] (Fallopia convolvulus, post-emergence, 480 h, B.123 alone 1000 g/ha a.i., read-out: herbicidal activity against POLCO found) it was 65%.
As to `CCCOCCN(C(=O)CCl)c1c(CC)cccc1CC` [B.135, pretilachlor], the pest or weed control at 100 g/ha in assay [1] (Abutilon theophrasti, post-emergence, 480 h, B.135 100 g/ha a.i., read-out: herbicidal activity against ABUTH found) is 0%; in assay [2] (Erigeron canadensis, post-emergence, 480 h, B.135 100 g/ha a.i., read-out: herbicidal activity against ERICA found), 0%; in assay [3] (B.135 100 g/ha a.i.) it was 0%. Besides, the pest or weed control at 200 g/ha in assay [1] (Abutilon theophrasti, post-emergence, 480 h, B.135 200 g/ha a.i., read-out: herbicidal activity against ABUTH found) came out at 0%; in assay [2] (Erigeron canadensis, post-emergence, 480 h, B.135 200 g/ha a.i., read-out: herbicidal activity against ERICA found) it was 0%; in assay [8] (Galium aparine, post-emergence, 480 h, B.135 200 g/ha a.i., read-out: herbicidal activity against GALAP found), 0%; in assay [3] (B.135 200 g/ha a.i.), 0%; in assay [4] (Matricaria chamomilla, post-emergence, 480 h, B.135 200 g/ha a.i., read-out: herbicidal activity against MATCH found) it was 0%; in assay [5] (Fallopia convolvulus, post-emergence, 480 h, B.135 200 g/ha a.i., read-out: herbicidal activity against POLCO found), 0%. Further, the pest or weed control at 400 g/ha in assay [1] (Abutilon theophrasti, post-emergence, 480 h, B.135 400 g/ha a.i., read-out: herbicidal activity against ABUTH found) was 0%; in assay [2] (Erigeron canadensis, post-emergence, 480 h, B.135 400 g/ha a.i., read-out: herbicidal activity against ERICA found) it was 20%; in assay [3] (B.135 400 g/ha a.i.), 0%; in assay [4] (Matricaria chamomilla, post-emergence, 480 h, B.135 400 g/ha a.i., read-out: herbicidal activity against MATCH found), 0%.
Turning to `CCCCCCCC/C=C\CCCCCCCC(=O)OC` [methyl oleate], the pest or weed control at 6 g/ha in assay [1] (Abutilon theophrasti, post-emergence, 480 h, methyl oleate 6 g/ha a.i., read-out: herbicidal activity against ABUTH found) worked out at 0%; in assay [2] (Erigeron canadensis, post-emergence, 480 h, methyl oleate 6 g/ha a.i., read-out: herbicidal activity against ERICA found), 0%; in assay [3] (methyl oleate 6 g/ha a.i.) it was 0%; in assay [4] (Matricaria chamomilla, post-emergence, 480 h, methyl oleate 6 g/ha a.i., read-out: herbicidal activity against MATCH found), 0%; in assay [5] (Fallopia convolvulus, post-emergence, 480 h, methyl oleate 6 g/ha a.i., read-out: herbicidal activity against POLCO found), 0%. The pest or weed control at 12 g/ha in assay [1] (Abutilon theophrasti, post-emergence, 480 h, methyl oleate 12 g/ha a.i., read-out: herbicidal activity against ABUTH found) turned out to be 0%; in assay [2] (Erigeron canadensis, post-emergence, 480 h, methyl oleate 12 g/ha a.i., read-out: herbicidal activity against ERICA found) it was 0%; in assay [8] (Galium aparine, post-emergence, 480 h, methyl oleate 12 g/ha a.i., read-out: herbicidal activity against GALAP found), 0%; in assay [3] (methyl oleate 12 g/ha a.i.), 0%; in assay [4] (Matricaria chamomilla, post-emergence, 480 h, methyl oleate 12 g/ha a.i., read-out: herbicidal activity against MATCH found), 0%; in assay [5] (Fallopia convolvulus, post-emergence, 480 h, methyl oleate 12 g/ha a.i., read-out: herbicidal activity against POLCO found), 0%. For the same molecule, the pest or weed control at 3 g/ha was 0% in assay [2] (Erigeron canadensis, post-emergence, 480 h, methyl oleate 3 g/ha a.i., read-out: herbicidal activity against ERICA found); 0% in assay [3] (methyl oleate 3 g/ha a.i.); 0% in assay [4] (Matricaria chamomilla, post-emergence, 480 h, methyl oleate 3 g/ha a.i., read-out: herbicidal activity against MATCH found); 0% in assay [5] (Fallopia convolvulus, post-emergence, 480 h, methyl oleate 3 g/ha a.i., read-out: herbicidal activity against POLCO found).
